Values of other authors, collected in article PMC10761933, “Acquired and intrinsic resistance to vemurafenib in BRAF^V600E ‐driven melanoma brain metastases” (FEBS Open Bio, 2023).

Experiments:
A375 cells = details: read-out: IC50 against A375 cells; cited from earlier work
[1] = tested on: melanoma brain metastases; details: MBM patients, treatment alone; cited from earlier work
[2] = WT mice; cited from earlier work
[3] = mice; stated without reference; cited from earlier work

SMILES | IC50 (A375 cells) | median overall survival [1] | brain–plasma ratio [2] | t max of oral elacridar [3]
CC(C)(C)c1nc(-c2cccc(NS(=O)(=O)c3c(F)cccc3F)c2F)c(-c2ccnc(N)n2)s1 [dabrafenib] | 4 nM | 7 months | approximately 0.1 | –
COc1cc2c(cc1OC)CN(CCc1ccc(NC(=O)c3cccc4c(=O)c5cccc(OC)c5[nH]c34)cc1)CC2 [elacridar] | – | – | – | ~4 h
COC(=O)N[C@@H](C)CNc1nccc(-c2cn(C(C)C)nc2-c2cc(Cl)cc(NS(C)(=O)=O)c2F)n1 [encorafenib] | 4 nM | – | roughly 0.004 | –
